Patent publication US10676462B2, “Quinoline derivative” (ONO PHARMACEUTICAL CO., LTD., priority 2013, dated 2020)
pIC50: −log10 of the molar value.

Tests used:
KDR = KDR (Homo sapiens, UniProt P35968); test: Evaluation of kinase selectivity (in vitro test), KDR; type: biochemical; details: Axl selective inhibitory activity with respect to KDR, ratio of IC50 values
Method: Biological Example 3: Evaluation of Kinase Selectivity (In Vitro Test)
Similar to Biological Example 1, values of 50% inhibition rate (IC50 value) with respect to various kinases (KDR, DDR1, FLT4, and ROS) of the test compound were measured. The Axl selective inhibitory activity of the test compound with respect to kinases, for example, KDR, was calculated based on the above-mentioned ratio of the IC50 values. As the test compound, for the compound of the present invention, the compounds of Examples 5, 5(1), 17(2), and 23(2) were used, and for the comparative compounds, the compound of Example 5 (Comparative compound C) and the compound of Example 92 (Comparative compound D) described in Patent Literature 5, having the following structure, were used.

Human CYP2C8 = biological target: T1, Human CYP2C8 (Homo sapiens, UniProt P10632); test: Inhibitory activity of drug-metabolizing enzyme (human CYP2C8 inhibition effect); type: in vitro ADME; details: E. coli-expressed CYP2C8, substrate Luciferin-ME, from inhibition rates at 1 and 10 μmol/L
T1 construct: E. coli-expressed liver microsome CYP2C8 (Cypex, 30 μmol/L); purchased Cypex; host or cells: E. coli
T1 sequence (P10632 1-490): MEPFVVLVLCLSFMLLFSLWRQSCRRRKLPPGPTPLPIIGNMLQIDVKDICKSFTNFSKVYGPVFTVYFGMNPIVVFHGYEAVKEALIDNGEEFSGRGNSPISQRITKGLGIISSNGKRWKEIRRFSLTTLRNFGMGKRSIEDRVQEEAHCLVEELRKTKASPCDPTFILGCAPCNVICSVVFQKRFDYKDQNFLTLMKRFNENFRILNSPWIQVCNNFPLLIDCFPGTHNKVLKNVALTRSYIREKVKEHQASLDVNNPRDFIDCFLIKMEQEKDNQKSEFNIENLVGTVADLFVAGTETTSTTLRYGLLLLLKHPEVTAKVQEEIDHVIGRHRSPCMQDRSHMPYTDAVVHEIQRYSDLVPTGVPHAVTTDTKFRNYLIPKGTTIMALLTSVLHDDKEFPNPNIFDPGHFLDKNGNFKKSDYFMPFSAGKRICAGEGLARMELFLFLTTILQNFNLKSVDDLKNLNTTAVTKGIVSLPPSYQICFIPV
Method: Biological Example 4: Measurement of Inhibitory Activity of Drug-Metabolizing Enzyme (Human CYP2C8 Inhibition Effect)
The reaction was carried out in a 384-well plate. As the positive control substance (CYP2C8: quercetin), a solution, which had been adjusted with DMSO to have 300 times higher concentration than the final concentration (CYP2C8: 22.5 and 225 μmol/L) and been 75-fold diluted with purified water containing 2.7% acetonitrile, was prepared (CYP2C8: 0.3 and 3 μmol/L). The test compounds were prepared to have a concentration of […] with DMSO, and then 75-fold diluted with purified water containing 2.7% acetonitrile to be 4 and 40 μmol/L. Then, a reaction mixture solution was prepared by addition of a potassium phosphate buffer (pH 7.4), magnesium chloride ([…]), substrate (CYP2C8: Luciferin-ME, 150 μmol/L), and E. coli-expressed liver microsome CYP2C8 (Cypex, 30 μmol/L) (the numerical values are final concentrations). The reaction was started by addition of 8 μL of this reaction mixture, 4 μL each of the test compound and the positive control solution which had been prepared as described above, and 4 μL of NADPH production system solution (5.2 mM NADP, 13.2 mM glucose-6-phosphate, 1.6 U/mL glucose-6-phosphate dehydrogenase) and incubation was carried out at 37° C. for 30 min. Thereafter, 16 μL of luciferase solution was added to stop the reaction and to allow luciferin to emit light, and the luminescence intensity of the reaction solution was measured. The inhibition rate is a reduction rate (inhibition rate) of the luminescence intensity when compared with the control in which the reaction was carried out by the addition of DMSO in place of the test compound solution. The inhibition rate was calculated from the following mathematical formula. Inhibition rate (%)=100−{(luminescence intensity of test compound−background luminescence intensity)/(luminescence intensity of control−background luminescence intensity)×100} [Math. 3]
The IC50 value was defined to be <1 μM when the inhibition rate at 1 μmol/L was not less than 50%; and >10 μM when the inhibition rate at 10 μmol/L was not more than 50%. The range between the above-mentioned range (not more than 50% at 1 μmol/L and not less than 50% at 10 μmol/L) was calculated using the following mathematical formula: IC50=(50−b)/a [Math.4] wherein a and b are the slope and intercept of the linear regression line: y=ax+b that passes through the two points: the concentration and the inhibition rate at 1 μmol/L and the concentration and the inhibition rate at 10 μmol/L.
The IC50 values of the comparative compounds and compounds of the present invention were measured using the measurement method described above.

Sequence of KDR (P35968 20-1356): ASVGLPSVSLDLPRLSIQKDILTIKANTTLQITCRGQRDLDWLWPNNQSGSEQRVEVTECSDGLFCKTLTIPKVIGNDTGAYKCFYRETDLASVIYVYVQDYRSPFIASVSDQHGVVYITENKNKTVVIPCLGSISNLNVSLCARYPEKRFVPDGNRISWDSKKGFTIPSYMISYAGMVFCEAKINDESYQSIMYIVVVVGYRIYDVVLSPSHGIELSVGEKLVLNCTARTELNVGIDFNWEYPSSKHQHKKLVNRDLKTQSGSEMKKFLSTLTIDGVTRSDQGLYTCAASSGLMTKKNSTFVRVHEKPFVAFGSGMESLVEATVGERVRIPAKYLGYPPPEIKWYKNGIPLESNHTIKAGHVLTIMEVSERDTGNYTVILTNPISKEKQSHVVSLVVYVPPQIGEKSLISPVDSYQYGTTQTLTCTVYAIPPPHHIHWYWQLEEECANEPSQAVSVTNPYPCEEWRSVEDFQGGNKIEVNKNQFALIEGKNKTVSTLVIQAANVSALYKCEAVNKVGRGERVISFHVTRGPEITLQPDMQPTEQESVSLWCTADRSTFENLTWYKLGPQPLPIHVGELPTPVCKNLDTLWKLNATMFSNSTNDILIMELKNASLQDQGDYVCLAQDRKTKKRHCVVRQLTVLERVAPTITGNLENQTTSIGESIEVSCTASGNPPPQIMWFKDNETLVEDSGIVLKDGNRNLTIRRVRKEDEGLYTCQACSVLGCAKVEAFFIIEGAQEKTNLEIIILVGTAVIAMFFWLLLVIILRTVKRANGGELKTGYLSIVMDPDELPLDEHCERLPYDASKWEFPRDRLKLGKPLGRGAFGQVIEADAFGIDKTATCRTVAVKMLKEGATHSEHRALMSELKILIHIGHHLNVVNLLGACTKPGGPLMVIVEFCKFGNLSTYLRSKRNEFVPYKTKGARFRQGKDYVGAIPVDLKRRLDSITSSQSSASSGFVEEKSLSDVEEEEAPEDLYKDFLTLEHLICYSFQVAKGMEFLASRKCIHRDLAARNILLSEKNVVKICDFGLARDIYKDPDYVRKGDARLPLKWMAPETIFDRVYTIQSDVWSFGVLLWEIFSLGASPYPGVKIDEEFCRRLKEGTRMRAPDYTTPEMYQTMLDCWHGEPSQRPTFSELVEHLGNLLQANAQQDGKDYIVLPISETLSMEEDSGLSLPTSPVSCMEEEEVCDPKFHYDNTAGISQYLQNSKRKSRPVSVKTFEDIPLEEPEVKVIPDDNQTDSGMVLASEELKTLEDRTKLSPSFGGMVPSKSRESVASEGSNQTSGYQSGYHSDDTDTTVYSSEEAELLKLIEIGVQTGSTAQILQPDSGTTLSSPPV

Row | KDR [IC50]/Axl [IC50] (KDR) | pIC50 (Human CYP2C8) | Structure (SMILES)
1 | about 1800 times | < 5.00 | COc1cc2nccc(Oc3ccc(NC(=O)c4cc5c(n(-c6ccccc6)c4=O)CC(C)(C)CC5=O)nc3)c2cc1OC [Example 5(1), N-{5-[(6,7-dimethoxy-4-quinolinyl)oxy]-2-pyridinyl}-7,7-dimethyl-2,5-dioxo-1-phenyl-1,2,5,6,7,8-hexahydro-3-quinolinecarboxamide]
2 | about 650 times | < 5.00 | O=C1CCCc2c1cc(C(=O)Nc1ccc(Oc3ccnc4cc(OCCCN5CCOCC5)ccc34)cn1)c(=O)n2-c1ccccc1 [Example 17(2), N-[5-({7-[3-(4-morpholinyl)propoxy]-4-quinolinyl}oxy)-2-pyridinyl]2,5-dioxo-1-phenyl-1,2,5,6,7,8-hexahydro-3-quinolinecarboxamide]
3 | about 520 times | < 5.00 | COc1cc2nccc(Oc3ccc(NC(=O)c4cc5c(n(-c6ccccc6)c4=O)CCCC5=O)c(C)c3)c2cc1OC [Example 23(2), N-{4-[(6,7-dimethoxy-4-quinolinyl)oxy]-2-methylphenyl}-2,5-dioxo-1-phenyl-1,2,5,6,7,8-hexahydro-3-quinolinecarboxamide]

Row | Structure (SMILES) | KDR [IC50]/Axl [IC50] (KDR) | pIC50 (Human CYP2C8)
4 | COc1cc2nccc(Oc3ccc(NC(=O)c4cc5c(n(-c6ccccc6)c4=O)CCCC5=O)nc3)c2cc1OC [Example 5, N-{5-[(6,7-dimethoxy-4-quinolinyl)oxy]-2-pyridinyl}-2,5-dioxo-1-phenyl-1,2,5,6,7,8-hexahydro-3-quinolinecarboxamide] | about 900 times | < 5.00
